Measurements as given in PubChem BioAssay AID2060899 (Molecular Pharmacology Branch, DTP, NCI, 2025).

System: 565726-208-R1-J5-PDC complex spheroids, growth inhibition
Assay: Anticancer human tumor 565726-208-R1-J5-PDC patient-derived pancreatic adenocarcinoma cell line growth inhibition [RAS]
Settings: for IC50: curve of first compound; for viability, T/C: stronger effect = lower value
In short: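 Agents were tested in combination matrices in half-log decrements from a top concentration at or near clinical Cmax (10 microM if undetermined). Targets were multi-cell spheroids of tumour lines plus HUVEC and MSC stromal cells.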
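Note: spheroids exposed to compounds for seven days before readout.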
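Throughout, for viability, T/C: 100% = DMSO vehicle control viability.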

Work on `CC1(O)CCCC1n1c(=O)c(C(F)F)cc2cnc(NC3CCN(S(C)(=O)=O)CC3)nc21` (configuration not stated) + CCn1c(-c2cccnc2C(C)OC)c2c3cc(ccc31)N1CCOC(CC(NC(=O)C(C(C)C)N(C)C(=O)C3(F)CCN(C(=O)C#CC(C)(C)N(C)C)CC3)C(=O)N3CCCC(N3)C(=O)OCC(C)(C)C2)C1 yielded an IC50 (second compound 0.000949 µM) of 1580 nM, an IC50 (second compound 0.003 µM) of 1740 nM and an IC50 (second compound 0.00949 µM) of 2480 nM. For the same compound, the IC50 (second compound 0.03 µM) was 2150 nM, the IC50 (second compound 0.0949 µM) was 734 nM and the IC50 (second compound 0.3 µM) was 1650 nM. It also gave a viability, T/C (second compound 0.000949 µM, first compound 0.0316 µM) of 89.3%, a viability, T/C (second compound 0.000949 µM, first compound 0.1 µM) of 65.9% and a viability, T/C (second compound 0.000949 µM, first compound 0.316 µM) of 61.5%. The viability, T/C (second compound 0.000949 µM, first compound 1 µM) was 55.9%, the viability, T/C (second compound 0.000949 µM, first compound 3.16 µM) was 48% and the viability, T/C (second compound 0.000949 µM, first compound 10 µM) was 4.71%. The viability, T/C (second compound 0.003 µM, first compound 0.0316 µM) was 92.6%, the viability, T/C (second compound 0.003 µM, first compound 0.1 µM) was 66.7% and the viability, T/C (second compound 0.003 µM, first compound 0.316 µM) was 59.9%. It also gave a viability, T/C (second compound 0.003 µM, first compound 1 µM) of 61.9%, a viability, T/C (second compound 0.003 µM, first compound 3.16 µM) of 47.5% and a viability, T/C (second compound 0.003 µM, first compound 10 µM) of 5.57%. It also gave a viability, T/C (second compound 0.00949 µM, first compound 0.0316 µM) of 87.1%, a viability, T/C (second compound 0.00949 µM, first compound 0.1 µM) of 73.3% and a viability, T/C (second compound 0.00949 µM, first compound 0.316 µM) of 64%. The viability, T/C (second compound 0.00949 µM, first compound 1 µM) was 65.4%, the viability, T/C (second compound 0.00949 µM, first compound 3.16 µM) was 50.4% and the viability, T/C (second compound 0.00949 µM, first compound 10 µM) was 4.99%. The viability, T/C (second compound 0.03 µM, first compound 0.0316 µM) was 79.3%, the viability, T/C (second compound 0.03 µM, first compound 0.1 µM) was 70.6% and the viability, T/C (second compound 0.03 µM, first compound 0.316 µM) was 64.6%. The viability, T/C (second compound 0.03 µM, first compound 1 µM) was 55%, the viability, T/C (second compound 0.03 µM, first compound 3.16 µM) was 51.5% and the viability, T/C (second compound 0.03 µM, first compound 10 µM) was 5.14%. For the same compound, the viability, T/C (second compound 0.0949 µM, first compound 0.0316 µM) was 86.3%, the viability, T/C (second compound 0.0949 µM, first compound 0.1 µM) was 72.7% and the viability, T/C (second compound 0.0949 µM, first compound 0.316 µM) was 53.8%. It also gave a viability, T/C (second compound 0.0949 µM, first compound 1 µM) of 53%, a viability, T/C (second compound 0.0949 µM, first compound 3.16 µM) of 49.9% and a viability, T/C (second compound 0.0949 µM, first compound 10 µM) of 3.75%. It also gave a viability, T/C (second compound 0.3 µM, first compound 0.0316 µM) of 68%, a viability, T/C (second compound 0.3 µM, first compound 0.1 µM) of 64.2% and a viability, T/C (second compound 0.3 µM, first compound 0.316 µM) of 54.3%. For the same compound, the viability, T/C (second compound 0.3 µM, first compound 1 µM) was 54.1%, the viability, T/C (second compound 0.3 µM, first compound 3.16 µM) was 45.4% and the viability, T/C (second compound 0.3 µM, first compound 10 µM) was 3.4%.
